Measured values taken from ChEMBL document CHEMBL4402607, “Molecular Basis for Omapatrilat and Sampatrilat Binding to Neprilysin-Implications for Dual Inhibitor Design with Angiotensin-Converting Enzyme” (J Med Chem, 2020).

Legend:
[1] = Inhibition of rabbit lung ACE using hippuryl-His-Leu as substrate preincubated with enzyme for 15 mins followed by substrate addition; design: species or system Oryctolagus cuniculus
[2] = molecular target: T1, Neprilysin (Rattus norvegicus, UniProt P07861); assay: Inhibition of rat kidney NEP using glutaryl-Ala-Ala-beta-naphthylamide as substrate preincubated with enzyme for 15 mins followed by substrate addition
T1 sequence (P07861 whole entry): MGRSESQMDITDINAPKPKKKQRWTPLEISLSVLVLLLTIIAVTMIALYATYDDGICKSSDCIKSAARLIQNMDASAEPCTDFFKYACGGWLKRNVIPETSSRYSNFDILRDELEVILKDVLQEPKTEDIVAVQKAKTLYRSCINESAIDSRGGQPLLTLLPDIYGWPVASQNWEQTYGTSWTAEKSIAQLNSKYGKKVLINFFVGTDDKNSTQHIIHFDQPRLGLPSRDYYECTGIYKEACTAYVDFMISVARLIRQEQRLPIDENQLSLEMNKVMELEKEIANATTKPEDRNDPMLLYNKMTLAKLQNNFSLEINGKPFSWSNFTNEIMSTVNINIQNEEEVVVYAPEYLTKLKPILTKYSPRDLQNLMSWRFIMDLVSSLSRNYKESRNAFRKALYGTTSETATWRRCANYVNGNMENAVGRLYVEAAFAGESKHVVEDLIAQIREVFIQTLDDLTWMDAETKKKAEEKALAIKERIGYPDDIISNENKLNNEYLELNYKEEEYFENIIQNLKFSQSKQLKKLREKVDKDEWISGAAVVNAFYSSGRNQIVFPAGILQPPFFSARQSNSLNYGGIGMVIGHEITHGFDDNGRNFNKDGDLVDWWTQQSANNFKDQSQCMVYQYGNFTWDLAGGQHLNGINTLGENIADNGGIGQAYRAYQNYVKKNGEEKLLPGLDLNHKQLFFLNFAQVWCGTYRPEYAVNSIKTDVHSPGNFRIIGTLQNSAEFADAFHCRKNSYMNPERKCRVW

[3] = molecular target: T2, Angiotensin-converting enzyme (Homo sapiens, UniProt P12821); assay: Inhibition of human testis ACE C-domain lacking unique O-glycosylated region, transmembrane anchor and cytoplasmic tail expressed in CHO cells using Z-FHL as substrate by fluorescence based assay
[4] = molecular target: T2, Angiotensin-converting enzyme; assay: Inhibition of human somatic ACE N-domain soluble form (1 to 629 residues) expressed in CHO cells using Z-FHL as substrate preincubated with enzyme followed by substrate addition by fluorescence based assay
[5] = molecular target: Neprilysin (Homo sapiens, UniProt P08473); assay: Inhibition of NEP (unknown origin)
[6] = molecular target: T2, Angiotensin-converting enzyme; assay: Inhibition of human ACE using MCA-RPPGFSAFK-Dnp-OH as substrate by fluorescence based analysis

T2 sequence (P12821 whole entry, the tested form may be a part): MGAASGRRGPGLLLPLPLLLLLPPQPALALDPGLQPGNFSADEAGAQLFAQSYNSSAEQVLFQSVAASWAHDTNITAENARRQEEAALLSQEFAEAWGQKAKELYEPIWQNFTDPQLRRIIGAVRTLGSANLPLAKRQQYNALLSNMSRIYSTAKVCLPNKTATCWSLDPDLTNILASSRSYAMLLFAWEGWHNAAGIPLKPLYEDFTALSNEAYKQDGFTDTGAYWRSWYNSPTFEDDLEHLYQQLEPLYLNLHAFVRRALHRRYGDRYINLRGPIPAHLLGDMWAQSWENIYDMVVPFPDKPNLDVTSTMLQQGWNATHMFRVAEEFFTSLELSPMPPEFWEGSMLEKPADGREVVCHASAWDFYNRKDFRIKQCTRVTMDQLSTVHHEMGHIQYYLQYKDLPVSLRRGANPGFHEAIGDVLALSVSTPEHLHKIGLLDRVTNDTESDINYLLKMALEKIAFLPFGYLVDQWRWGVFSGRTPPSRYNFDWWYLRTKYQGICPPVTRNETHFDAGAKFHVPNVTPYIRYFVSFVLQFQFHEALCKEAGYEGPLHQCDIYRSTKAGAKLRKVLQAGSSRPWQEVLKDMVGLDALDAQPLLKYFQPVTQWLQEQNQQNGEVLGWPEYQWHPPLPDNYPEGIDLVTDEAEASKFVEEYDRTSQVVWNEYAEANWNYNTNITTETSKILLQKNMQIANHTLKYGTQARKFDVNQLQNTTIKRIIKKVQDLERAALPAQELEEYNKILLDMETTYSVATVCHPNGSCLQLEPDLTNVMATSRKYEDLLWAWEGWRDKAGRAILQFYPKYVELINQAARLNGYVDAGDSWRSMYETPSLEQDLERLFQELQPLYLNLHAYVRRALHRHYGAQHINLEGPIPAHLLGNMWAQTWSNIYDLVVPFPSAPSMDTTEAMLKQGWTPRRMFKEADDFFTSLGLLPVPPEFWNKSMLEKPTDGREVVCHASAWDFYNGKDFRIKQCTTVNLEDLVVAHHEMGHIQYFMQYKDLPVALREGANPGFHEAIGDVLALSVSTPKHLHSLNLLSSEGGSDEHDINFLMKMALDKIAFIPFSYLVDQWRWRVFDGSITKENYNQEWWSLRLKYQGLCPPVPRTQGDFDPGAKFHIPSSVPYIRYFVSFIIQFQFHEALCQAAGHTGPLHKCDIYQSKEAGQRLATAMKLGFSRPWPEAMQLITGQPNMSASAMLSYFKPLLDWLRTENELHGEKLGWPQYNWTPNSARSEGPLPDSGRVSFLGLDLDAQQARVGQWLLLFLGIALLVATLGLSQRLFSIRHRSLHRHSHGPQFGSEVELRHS
Neprilysin (Homo sapiens, UniProt P08473), sequence (P08473 whole entry): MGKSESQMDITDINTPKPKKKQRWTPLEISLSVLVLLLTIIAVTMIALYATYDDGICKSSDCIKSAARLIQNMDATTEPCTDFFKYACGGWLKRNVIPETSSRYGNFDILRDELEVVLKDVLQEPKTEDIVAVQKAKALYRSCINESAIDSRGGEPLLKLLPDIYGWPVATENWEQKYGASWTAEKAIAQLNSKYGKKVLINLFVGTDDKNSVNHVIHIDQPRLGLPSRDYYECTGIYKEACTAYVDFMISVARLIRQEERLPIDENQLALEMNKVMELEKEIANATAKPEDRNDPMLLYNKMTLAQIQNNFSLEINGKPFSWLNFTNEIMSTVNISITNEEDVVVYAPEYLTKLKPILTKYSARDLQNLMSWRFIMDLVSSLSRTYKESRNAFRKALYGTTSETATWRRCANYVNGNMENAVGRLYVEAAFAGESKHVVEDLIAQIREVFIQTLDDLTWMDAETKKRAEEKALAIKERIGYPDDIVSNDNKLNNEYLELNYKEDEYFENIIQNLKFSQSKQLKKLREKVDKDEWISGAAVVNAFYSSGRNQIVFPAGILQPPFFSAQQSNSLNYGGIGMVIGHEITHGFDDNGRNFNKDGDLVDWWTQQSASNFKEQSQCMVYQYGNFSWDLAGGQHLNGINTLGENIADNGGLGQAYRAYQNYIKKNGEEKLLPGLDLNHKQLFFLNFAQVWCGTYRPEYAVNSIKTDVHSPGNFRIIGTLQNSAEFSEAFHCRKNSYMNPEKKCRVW

| Compound | Ki [3] | Ki [4] | other results |
| --- | --- | --- | --- |
| CC(C)C[C@H](NP(=O)(O)O[C@@H]1O[C@@H](C)[C@H](O)[C@@H](O)[C@H]1O)C(=O)N[C@@H](Cc1c[nH]c2ccccc12)C(=O)O [PHOSPHORAMIDON] |  |  | IC50 [1]: 78000 nM; IC50 [2]: 34 nM |
| CS(=O)(=O)N[C@@H](CCCCN)C(=O)NC[C@H](CC1(C(=O)N[C@@H](Cc2ccc(O)cc2)C(=O)O)CCCC1)C(=O)O | 13.8 nM | 172 nM | IC50 [5]: 8 nM |
| CC(=O)N[C@@H](CC(=O)O)C(=O)NC[C@H](CC1(C(=O)N[C@@H](Cc2ccc(O)cc2)C(=O)O)CCCC1)C(=O)O | 7400 nM | 10600 nM |  |
| C[C@H](C[C@@H](Cc1ccc(-c2ccccc2)cc1)NC(=O)CCC(=O)O)C(=O)O [LBQ-657] |  |  | IC50 [6]: > 100000 nM |
